Test results from ChEMBL document CHEMBL1201862, “PubChem BioAssay data set” (2004).
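Grown in 96-well plates, cells were treated for 48 hours with each compound at five concentrations. Insufficient inhibition: endpoint recorded as highest concentration tested. Here, GI50 denotes the concentration required for 50% inhibition of growth.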 Activity calls are given as the source filed them. Rule as the data show it: active = GI50 up to about 1.1 µM and inactive = higher.

Legend:
Test in all cases: inhibition of tumour cell growth, NCI panel, 48 h
TK-10 = tested on: TK-10
OVCAR-3 = tested on: OVCAR-3
Hs-578T = tested on: Hs-578T
SR = tested on: SR
MDA-N = tested on: MDA-N
BT-549 = tested on: BT-549
HCT-15 = tested on: HCT-15
M14 = tested on: M14
PC-3 = tested on: PC-3
UACC-257 = tested on: UACC-257
UACC-62 = tested on: UACC-62
SK-MEL-2 = tested on: SK-MEL-2
SF-268 = tested on: SF-268
T47D = tested on: T47D
UO-31 = tested on: UO-31
K562 = tested on: K562
DMS-114 = tested on: DMS-114
MOLT-4 = tested on: MOLT-4
SF-539 = tested on: SF-539
NCI-H23 = tested on: NCI-H23
786-0 = tested on: 786-0
SNB-75 = tested on: SNB-75
ACHN = tested on: ACHN
HT-29 = tested on: HT-29
U-251 = tested on: U-251
A549 = tested on: A549
SN12C = tested on: SN12C
CCRF-CEM = tested on: CCRF-CEM
Malme-3M = tested on: Malme-3M
DLD-1 = tested on: DLD-1
HOP-62 = tested on: HOP-62
M19-MEL = tested on: M19-MEL
NCI-H226 = tested on: NCI-H226
MCF7 = tested on: MCF7
XF498 = tested on: XF498
SF-295 = tested on: SF-295
RXF 393 = tested on: RXF 393
A498 = tested on: A498
HL-60 = tested on: HL-60
NCI-H460 = tested on: NCI-H460
LXFL 529 = tested on: LXFL 529
NCI/ADR-RES = tested on: NCI/ADR-RES
COLO 205 = tested on: COLO 205
DU-145 = tested on: DU-145
RPMI-8226 = tested on: RPMI-8226
NCI-H522 = tested on: NCI-H522
EKVX = tested on: EKVX
IGROV-1 = tested on: IGROV-1
KM-20L2 = tested on: KM-20L2
SK-MEL-5 = tested on: SK-MEL-5
HOP-92 = tested on: HOP-92
OVCAR-8 = tested on: OVCAR-8
HCT-116 = tested on: HCT-116
SNB-78 = tested on: SNB-78
CAKI-1 = tested on: CAKI-1
DMS-273 = tested on: DMS-273
OVCAR-4 = tested on: OVCAR-4
OVCAR-5 = tested on: OVCAR-5
HCC 2998 = tested on: HCC 2998
MDA-MB-231 = tested on: MDA-MB-231
KM12 = tested on: KM12
SNB-19 = tested on: SNB-19
MDA-MB-435 = tested on: MDA-MB-435
SW-620 = tested on: SW-620
SK-OV-3 = tested on: SK-OV-3
SK-MEL-28 = tested on: SK-MEL-28
LOX IMVI = tested on: LOX IMVI
HOP-18 = tested on: HOP-18

For `O=C(CCl)Nc1ccc(C(=O)N/N=C/c2ccc(Cl)cc2)cc1`, the GI50 (TK-10) was 15.9 µM (inactive), the GI50 (OVCAR-3) was 1.84 µM (inactive) and the GI50 (Hs-578T) was 2.82 µM (inactive). For the same compound, the GI50 (SR) was 1.79 µM (inactive), the GI50 (MDA-N) was 1.83 µM (inactive) and the GI50 (BT-549) was 1.88 µM (inactive). For the same compound, the GI50 (HCT-15) was 4.63 µM, the GI50 (M14) was 6.41 µM (inactive) and the GI50 (PC-3) was 2.02 µM (inactive). The GI50 (UACC-257) was 1.67 µM (inactive), the GI50 (UACC-62) was 3.56 µM (inactive) and the GI50 (SK-MEL-2) was 5.58 µM (inactive). The GI50 (SF-268) was 2.07 µM (inactive), the GI50 (T47D) was 2.51 µM (inactive) and the GI50 (UO-31) was 4.46 µM (inactive). For the same compound, the GI50 (K562) was 2.89 µM (inactive), the GI50 (DMS-114) was 1.45 µM (inactive) and the GI50 (MOLT-4) was 1.9 µM (inactive). The GI50 (SF-539) was 2.01 µM (inactive), the GI50 (NCI-H23) was 2.44 µM (inactive) and the GI50 (786-0) was 1.58 µM (inactive). The GI50 (SNB-75) was 14.9 µM (inactive), the GI50 (ACHN) was 2.59 µM (inactive) and the GI50 (HT-29) was 1.67 µM (inactive). The GI50 (U-251) was 1.78 µM (inactive), the GI50 (A549) was 6.07 µM (inactive) and the GI50 (SN12C) was 2.84 µM (inactive). The GI50 (CCRF-CEM) was 1.82 µM (inactive), the GI50 (Malme-3M) was 2.01 µM (inactive) and the GI50 (DLD-1) was 2.18 µM (inactive). For the same compound, the GI50 (HOP-62) was 3.52 µM (inactive), the GI50 (M19-MEL) was 12.8 µM (inactive) and the GI50 (NCI-H226) was 18.6 µM (inactive). The GI50 (MCF7) was 5.09 µM (inactive), the GI50 (XF498) was 1.19 µM (inactive) and the GI50 (SF-295) was 4.06 µM (inactive). The GI50 (RXF 393) was 0.946 µM (active), the GI50 (A498) was 2.21 µM (inactive) and the GI50 (HL-60) was 1.6 µM (inactive). For the same compound, the GI50 (NCI-H460) was 2 µM (inactive), the GI50 (LXFL 529) was 1.71 µM (inactive) and the GI50 (NCI/ADR-RES) was 2.37 µM (inactive). For the same compound, the GI50 (COLO 205) was 0.731 µM (active), the GI50 (DU-145) was 3.02 µM (inactive) and the GI50 (RPMI-8226) was 2.42 µM (inactive). The GI50 (NCI-H522) was 1.75 µM (inactive), the GI50 (EKVX) was 2.19 µM (inactive) and the GI50 (IGROV-1) was 0.728 µM (active). For the same compound, the GI50 (KM-20L2) was 11.9 µM (inactive), the GI50 (SK-MEL-5) was 5.77 µM (inactive) and the GI50 (HOP-92) was 2 µM (inactive). For the same compound, the GI50 (OVCAR-8) was 2.29 µM (inactive), the GI50 (HCT-116) was 1.8 µM (inactive) and the GI50 (SNB-78) was 3.52 µM (inactive). The GI50 (CAKI-1) was 2.82 µM (inactive), the GI50 (DMS-273) was 2 µM (inactive) and the GI50 (OVCAR-4) was 2.09 µM (inactive). The GI50 (OVCAR-5) was 18.8 µM (inactive), the GI50 (HCC 2998) was 9.33 µM (inactive) and the GI50 (MDA-MB-231) was 1.94 µM (inactive). The GI50 (KM12) was 0.889 µM (active), the GI50 (SNB-19) was 7.41 µM (inactive) and the GI50 (MDA-MB-435) was 1.82 µM (inactive). For the same compound, the GI50 (SW-620) was 2.74 µM (inactive), the GI50 (SK-OV-3) was 3.03 µM (inactive) and the GI50 (SK-MEL-28) was 5.68 µM (inactive). The GI50 (LOX IMVI) was 1.48 µM (inactive).

In the case of `CC(=O)Oc1cc(OC(C)=O)c2c(=O)c3ccccc3[nH]c2c1`, the GI50 (TK-10) is reported as 38.5 µM (inactive), the GI50 (OVCAR-3) is reported as 16.2 µM (inactive) and the GI50 (HCT-15) is reported as 49.3 µM. For the same compound, the GI50 (UACC-257) was 28.1 µM (inactive), the GI50 (UACC-62) was 62.1 µM (inactive) and the GI50 (SK-MEL-2) was 49.5 µM (inactive). The GI50 (SF-268) was 50.5 µM (inactive), the GI50 (UO-31) was 12.5 µM (inactive) and the GI50 (DMS-114) was 24.8 µM (inactive). The GI50 (MOLT-4) was 27.5 µM (inactive), the GI50 (SF-539) was 20.8 µM (inactive) and the GI50 (NCI-H23) was 27.2 µM (inactive). The GI50 (SNB-75) was 35.2 µM (inactive), the GI50 (ACHN) was 24.6 µM (inactive) and the GI50 (HT-29) was 49.2 µM (inactive). The GI50 (A549) was 61.9 µM (inactive), the GI50 (SN12C) was 36.5 µM (inactive) and the GI50 (Malme-3M) was 24.4 µM (inactive). The GI50 (DLD-1) was 21.3 µM (inactive), the GI50 (M19-MEL) was 31.9 µM (inactive) and the GI50 (NCI-H226) was 27.5 µM (inactive). For the same compound, the GI50 (XF498) was 11.2 µM (inactive), the GI50 (SF-295) was 32.7 µM (inactive) and the GI50 (RXF 393) was 58.3 µM (inactive). The GI50 (NCI-H460) was 33.3 µM (inactive), the GI50 (LXFL 529) was 26.9 µM (inactive) and the GI50 (HOP-18) was 10.5 µM (inactive). For the same compound, the GI50 (NCI-H522) was 24.8 µM (inactive), the GI50 (IGROV-1) was 19.1 µM (inactive) and the GI50 (SK-MEL-5) was 18.9 µM (inactive). The GI50 (OVCAR-8) was 32.9 µM (inactive), the GI50 (HCT-116) was 56.8 µM (inactive) and the GI50 (SNB-78) was 57 µM (inactive). For the same compound, the GI50 (DMS-273) was 45.4 µM (inactive), the GI50 (OVCAR-4) was 65.9 µM (inactive) and the GI50 (KM12) was 37.8 µM (inactive). The GI50 (SNB-19) was 70.1 µM (inactive), the GI50 (SK-OV-3) was 13.9 µM (inactive) and the GI50 (SK-MEL-28) was 54.6 µM (inactive). For the same compound, the GI50 (LOX IMVI) was 39.4 µM (inactive).

For `C[C@]12CCC3[C@@H](C[C@H]4OC(=O)[C@@]35CCC(=O)C=C45)C1CCC2=O` (some centres undefined), the GI50 (TK-10) was > 100 µM (inactive), the GI50 (OVCAR-3) was > 100 µM (inactive) and the GI50 (SR) was > 100 µM (inactive). The GI50 (HCT-15) was > 100 µM, the GI50 (M14) was > 100 µM (inactive) and the GI50 (UACC-257) was > 100 µM (inactive). The GI50 (SK-MEL-2) was > 100 µM (inactive), the GI50 (SF-268) was > 100 µM (inactive) and the GI50 (UO-31) was > 100 µM (inactive). The GI50 (K562) was > 100 µM (inactive), the GI50 (DMS-114) was > 100 µM (inactive) and the GI50 (MOLT-4) was > 100 µM (inactive). The GI50 (SF-539) was > 100 µM (inactive), the GI50 (NCI-H23) was > 100 µM (inactive) and the GI50 (786-0) was > 100 µM (inactive). The GI50 (ACHN) was > 100 µM (inactive), the GI50 (HT-29) was > 100 µM (inactive) and the GI50 (U-251) was > 100 µM (inactive). For the same compound, the GI50 (A549) was > 100 µM (inactive), the GI50 (SN12C) was > 100 µM (inactive) and the GI50 (CCRF-CEM) was > 100 µM (inactive). For the same compound, the GI50 (Malme-3M) was > 100 µM (inactive), the GI50 (DLD-1) was > 100 µM (inactive) and the GI50 (M19-MEL) was > 100 µM (inactive). For the same compound, the GI50 (NCI-H226) was > 100 µM (inactive), the GI50 (XF498) was > 100 µM (inactive) and the GI50 (SF-295) was > 100 µM (inactive). For the same compound, the GI50 (RXF 393) was > 100 µM (inactive), the GI50 (HL-60) was > 100 µM (inactive) and the GI50 (NCI-H460) was > 100 µM (inactive). For the same compound, the GI50 (LXFL 529) was > 100 µM (inactive), the GI50 (HOP-18) was > 100 µM (inactive) and the GI50 (COLO 205) was > 100 µM (inactive). For the same compound, the GI50 (RPMI-8226) was > 100 µM (inactive), the GI50 (NCI-H522) was > 100 µM (inactive) and the GI50 (EKVX) was > 100 µM (inactive). The GI50 (IGROV-1) was > 100 µM (inactive), the GI50 (SK-MEL-5) was > 100 µM (inactive) and the GI50 (HOP-92) was > 100 µM (inactive). The GI50 (OVCAR-8) was > 100 µM (inactive), the GI50 (OVCAR-5) was > 100 µM (inactive) and the GI50 (HCC 2998) was > 100 µM (inactive). For the same compound, the GI50 (KM12) was > 100 µM (inactive), the GI50 (SNB-19) was > 100 µM (inactive) and the GI50 (SW-620) was > 100 µM (inactive). The GI50 (SK-OV-3) was > 100 µM (inactive) and the GI50 (SK-MEL-28) was > 100 µM (inactive).
